Values of other authors, collected in publication PMC4008333 (Cancer chemotherapy and pharmacology, 2012).
Starred links: 1 amine or outer side, 2 acyl side, 3 side chain; linkers in the order of their positions; H or OH if unused. Positions of bridges follow the written chain, without caps; N, C: chain ends. Non-standard residues stand in square brackets, D forms with d. Residues, ends and D or L forms follow the SMILES beside them. Chains are numbered I, II in the order given. Actinocin(9to1) = Cc1c2oc3c(C)ccc(C(=O)[*:1])c3nc-2c(C(=O)[*:2])c(N)c1=O; NMeV = CN[C@H](C(=O)O)C(C)C; Sar = CNCC(=O)O

Details: historical model; point estimate (% RSE)

Structure (SMILES): Cc1c2oc3c(C)ccc(C(=O)N[C@@H]4C(=O)N[C@H](C(C)C)C(=O)N5CCC[C@H]5C(=O)N(C)CC(=O)N(C)[C@@H](C(C)C)C(=O)O[C@@H]4C)c3nc-2c(C(=O)N[C@@H]2C(=O)N[C@H](C(C)C)C(=O)N3CCC[C@H]3C(=O)N(C)CC(=O)N(C)[C@@H](C(C)C)C(=O)O[C@@H]2C)c(N)c1=O [AMD, actinomycin-D] (I: T[dV]P[Sar][NMeV] / II: T[dV]P[Sar][NMeV]; ester I:1-I:C, II:1-II:C; linker I:N-II:N via Actinocin(9to1))
- Q2: 11.4 (58.8) L/h/70 kg
- Q3: 25.2 (23.3) L/h/70 kg
- V1: 3.56 (39.3) L/70 kg
- V2: 16.1 (80.7) L/70 kg
- V3: 367 (19.7) L/70 kg
